Key:
[1] = system: AXL pY; experiment: Short term p-AXL up-regulation (bead-based immunoassay); type: cell-based; conditions: 2 h; MDAMB231
From the text: pTyr-RTK measurements used bead-based immunocapture with a pan-pTyr detection antibody (EMD Millipore, Billerica, Mass.). Unless otherwise stated, immunoassays followed manufacturer protocols. Bead-based immunoassays were routinely normalized according to the micro BCA protein assay (Pierce) or cell count (ViCell). ADAM17 (pThr^735) and ADAM10 western blot Abs were from Sigma. Anti-phospho Histone H3 (Ser10) for measuring mitotic index was from EMD Millipore, (Billerica, Mass.). GAPDH (glyceraldehyde-3-phosphate dehydrogenase) and α-actinin were used for Western blotting and purchased from Cell Signaling Technology (Danvers, Mass.). APP Ab was from Abcam (Cambridge, Mass.). Live-cell immunostaining was performed using R&D Systems (Minneapolis, Minn.) Abs. SiRNAs, including non-targeting control siRNA, were packaged as SMARTpool ON-TARGETplus and used with DharmaFECT4 (Thermo Scientific, Tewksbury, Mass.). For ADAM10/17 western blots, lysis was performed with 50 mM tris-HCl (pH 7.5), 10% glycerol, 150 mM NaCl, and 1% NP-40, with complete protease (Roche, Nutley, N.J.) and phosphatase (Boston BioProducts, Ashland, Mass.) inhibitors added immediately before use.

[2] = system: AXL association with MET and HER2; experiment: RTK cross-linking and bead-based co-I.P.; type: cell-based; conditions: 2 h; MDAMB231
Description: MDA-MB231 cells were plated at 90% confluency on three 10-cm plates for each condition, serum starved for 4 h the following day, and treated with inhibitor in serum-free media for 2 h. Cells were then cross-linked with 1 mM EGS for 30 min at 4° C., lysed. Receptor cross-linking was measured using a modified MET and HER2 Luminex Bioplex assay, as previously described (Meyer, A. S., Miller, M. A., Gertler, F. B., and Lauffenburger, D. A. (2013). The receptor AXL diversifies EGFR signaling and limits the response to EGFR-targeted inhibitors in triple-negative breast cancer cells. Sci Signal 6, ra66).

[3] = system: p-JNK; experiment: Short term BB94-elicited downstream phosphosignaling (bead-based immunoassay); type: cell-based; conditions: 2 h; MDAMB231
[4] = system: sheddase substrates; experiment: Supernatant accumulation of sheddase substrates (ELISA, bead-based immunoassay); conditions: 24 h; multiple cancer types
Description: The following inhibitors were used in FIG. 1H, at the following concentrations: metalloproteinase inhibitor BB94 (10 μM; Tocris Bioscience), p38 inhibitor SB203580 (20 μM; Selleck Chem), MEK1/2 inhibitor PD0325901 (10 μM; LC Labs), Met/AXL inhibitor XL-880 (5 μM; Selleck Chem), MEK1/2 inhibitor U0126 (10 μM; Selleck Chem), MEK1/2 inhibitor AZD6244 (10 μM; Selleck Chem), Aurora kinase inhibitor VX-680 (10 μM; Selleck Chem), PI3K inhibitor LY294002 (10 μM; Selleck Chem), JNK1/2 inhibitor JNK-IN-8 (3 μM; courtesy Nathaniel Gray, Harvard Medical School), JNK inhibitor SP600125 (10 μM; LC Labs), EGFR inhibitor gefitinib (1 μM; LC Labs), EGFR inhibitor erlotinib (1 μM; LC Labs), JNK inhibitor TCS-6o (1 μM; Tocris Bioscience), Abl inhibitor imatinib (1 μM; LC Labs), EGFR/HER2 inhibitor lapatinib (1 μM; LC Labs), AXL inhibitor R428 (3 μM; Selleck Chem), Alk5 inhibitor ALX-270-448 (5 μM; Enzo life sciences), AXL/MET inhibitor MP470 (5 μM; Selleck Chem), myosin light chain kinase inhibitor ML7 (1 μM; Sigma), and glycogen synthase kinase 3b inhibitor SB216763 (10 μM; Selleck Chem) Inhibitor concentrations were chosen based roughly on exceeding previously published Ki and IC50 values. The ADAM-10 inhibitor pro-ADAM-10 was from Biozyme, Inc. (St. Joseph, Mo.) and was used at 4 μM.
AXL, MET, TNFR1, and EGF-ligand supernatant measurements were performed using duo-set ELISA kits (R&D Systems, Minneapolis, Minn.). Total RTK measurements for HER2 and HER4 were performed using bead-based immunoassays (EMD Millipore, Billerica, Mass.).
For quantification of supernatant protein levels, cell supernatant was collected at the indicated time-point, spun for 5 min at 300 g, and frozen at −80° C. for future use. Supernatants were routinely normalized to cell count, determined via trypsinization and ViCell (Beckman Coulter, Brea, Calif.), and volumes were kept consistent across treatments.
As shown in FIG. 3A-3B, MDA-MB231 cells were treated with siRNA as described above and were seeded in 96-well plates at equal 90% confluency. Media was changed at 48 h post-transfection, and 24 h later supernatant was collected and cells were analyzed by live-cell immunostaining. For proADAM10 treatment, cells were seeded in 96-well plates at 90% confluency, treated with inhibitor or buffer control the following day, and supernatant was collected 24 h later.

[5] = system: OVCA-429 ovarian cancer cells; experiment: Loewe synergy of MEKi/AXLi cell count, with or without BB94; type: cell-based; conditions: 72 h; addition of 10 uM BB94
Description: (§1) Drugs were purchased from Selleck Chem (Houston, Tex.) and LC Labs (Woburn, Mass.). Cells were grown as described by manufacturers' guidelines. OVCA-429 were grown in RPMI+10% FBS. To calculate Loewe synergy, a computational model was used (Greco, W. R., et al., Pharmacol Rev., 47(2):331-85 (1995)) and the synergy term a was computationally inferred using Matlab (Mathworks; Natick, Mass.). Statistical significance was determined by leave-one-out jackknife error estimation (Efron, B. and Gong, G., Amer Stat.; 37(1):36-48 (1983)). For both MDAMB-231 and OVCA-429 synergy calculations, the modeling was fit to data from treatment at the MEKi concentrations of 7 μM, 2 μM, 0.7 μM, and 0.02 μM and R428 concentrations of 1.5 μM, 0.75 μM, 0.38 μM, and 0.19 μM. For cell growth assays, 5000 cells were plated per well in a 96-well plate, treated with drugs the following day, and counted at 72 h according to either a rezasurin assay (PrestoBlue; Life Technologies, Grand Island, N.Y.) using manufacturer's guidelines, or by flow cytometry following trypsinization and immediate analysis on an LSR-II (BD Biosciences, San Jose, Calif.).

[6] = system: MDAMB-231; experiment: as above; type: cell-based; conditions: 72 h; addition of 10 uM BB94
Description: as §1

[7] = system: mitotic index; experiment: Cell cycle analysis (mitotic index by FACS); type: cell-based
Description: Cells were trypsinized, rinsed in 4° C. PBS, fixed in 70% 4° C. ethanol overnight, rinsed, and permeabilized in 0.1% Triton-X-100. Cells were then blocked for 1 h in PBS+3% FBS, incubated with anti-phospho-Histone H3 (pSer^10) for 1 h, rinsed, incubated with Alexa647-conjugated 2° Ab, and again rinsed. Lastly, cells were finally incubated at 37° C. for 1 h with 40 μg/ml propidium iodide and 100 μg/ml RNaseA, and again rinsed. Mitotic index was calculated by interpreting DNA-content histograms as described previously (Watson, J. V., Chambers, S. H. & Smith, P. J. A pragmatic approach to the analysis of DNA histograms with a definable G1 peak. Cytometry 8, 1-8 (1987)) in Matlab (Mathworks, Natick, Mass.) and gating for G2/M phase cells with high p-Histone-H3 staining.

**Q.** What does the source list for `CNC(=O)[C@H](Cc1ccccc1)NC(=O)[C@H](CC(C)C)[C@H](CSc1cccs1)C(=O)NO` [BB94]?
**A.** total AXL pY [1]: increases; AXL association with MET and HER2 [2]: increases; phosphosignaling [3]: increases phosphosignaling in an AXL-dependent manner; supernatant RTK accumulation [4]: reduced supernatant RTK accumulation; Loewe synergy (interaction term α) of trametinib and R428 [5]: reduced synergy; Loewe synergy (interaction term α) of PD325901 and R428 [6]: reduced synergy; mitotic index [7]: increases mitotic index
